From article PMC5209244 (Bioorganic & medicinal chemistry, 2016)
Counter-ions that a name gives are not always drawn.

Assays:
SERT = SERT (Homo sapiens, UniProt P31645); test: NIMH-PDSP radioligand binding, serotonin transporter
5-HT2CR = target: T1, 5-HT2CR (Homo sapiens, UniProt P28335); test: NIMH-PDSP radioligand binding, 5-HT2C receptor
T1 sequence (P28335 33-458): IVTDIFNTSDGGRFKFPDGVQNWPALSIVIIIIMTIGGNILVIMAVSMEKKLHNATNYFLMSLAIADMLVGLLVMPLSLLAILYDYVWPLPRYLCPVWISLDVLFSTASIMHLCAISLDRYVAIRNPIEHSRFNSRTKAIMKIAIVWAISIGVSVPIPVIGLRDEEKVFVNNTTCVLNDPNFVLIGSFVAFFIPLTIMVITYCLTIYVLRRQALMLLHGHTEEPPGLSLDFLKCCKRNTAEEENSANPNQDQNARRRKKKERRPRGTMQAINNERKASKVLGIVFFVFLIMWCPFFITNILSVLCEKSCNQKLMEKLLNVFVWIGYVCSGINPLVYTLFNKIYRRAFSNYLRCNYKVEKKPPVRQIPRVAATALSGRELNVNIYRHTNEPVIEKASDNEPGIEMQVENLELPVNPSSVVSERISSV

5-HT2AR = 5-HT2AR (Homo sapiens, UniProt P28223); test: NIMH-PDSP radioligand binding, 5-HT2A receptor
H1R = H1R (Homo sapiens, UniProt P35367); test: NIMH-PDSP radioligand binding, histamine H1 receptor
5-HT7R = 5-HT7R (Homo sapiens, UniProt P34969); test: NIMH-PDSP radioligand binding, 5-HT7 receptor
5-HT1AR = 5-HT1AR (Homo sapiens, UniProt P08908); test: NIMH-PDSP radioligand binding, 5-HT1A receptor
Sequence of 5-HT1AR (P08908 whole entry): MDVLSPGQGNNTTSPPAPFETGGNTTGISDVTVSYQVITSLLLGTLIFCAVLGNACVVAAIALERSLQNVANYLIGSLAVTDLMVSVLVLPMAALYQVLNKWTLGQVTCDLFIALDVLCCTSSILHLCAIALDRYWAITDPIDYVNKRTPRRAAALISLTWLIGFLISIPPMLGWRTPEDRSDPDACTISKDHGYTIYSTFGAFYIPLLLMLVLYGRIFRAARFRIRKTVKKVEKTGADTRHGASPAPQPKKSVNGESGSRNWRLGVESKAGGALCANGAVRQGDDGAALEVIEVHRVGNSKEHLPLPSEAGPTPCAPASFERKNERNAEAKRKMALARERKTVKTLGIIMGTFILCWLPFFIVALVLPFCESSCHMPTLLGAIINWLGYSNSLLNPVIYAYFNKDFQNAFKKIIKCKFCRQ

Sequence of SERT (P31645 whole entry): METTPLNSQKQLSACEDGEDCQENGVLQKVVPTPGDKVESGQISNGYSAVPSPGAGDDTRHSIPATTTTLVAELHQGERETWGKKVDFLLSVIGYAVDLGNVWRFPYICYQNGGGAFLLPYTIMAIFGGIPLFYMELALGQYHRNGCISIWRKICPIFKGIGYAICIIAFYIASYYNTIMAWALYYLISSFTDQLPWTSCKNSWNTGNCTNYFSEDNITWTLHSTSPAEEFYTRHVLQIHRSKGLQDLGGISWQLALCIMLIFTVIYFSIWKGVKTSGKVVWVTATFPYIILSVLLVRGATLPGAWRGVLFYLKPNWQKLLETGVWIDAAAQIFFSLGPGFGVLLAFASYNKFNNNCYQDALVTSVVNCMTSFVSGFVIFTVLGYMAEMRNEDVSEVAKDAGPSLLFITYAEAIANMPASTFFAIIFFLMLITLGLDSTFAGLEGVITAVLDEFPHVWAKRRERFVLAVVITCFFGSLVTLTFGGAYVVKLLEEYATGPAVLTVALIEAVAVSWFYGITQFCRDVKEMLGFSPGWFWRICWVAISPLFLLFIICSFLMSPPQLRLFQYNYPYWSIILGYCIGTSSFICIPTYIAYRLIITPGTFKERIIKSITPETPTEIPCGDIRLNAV
Sequence of 5-HT2AR (P28223 whole entry): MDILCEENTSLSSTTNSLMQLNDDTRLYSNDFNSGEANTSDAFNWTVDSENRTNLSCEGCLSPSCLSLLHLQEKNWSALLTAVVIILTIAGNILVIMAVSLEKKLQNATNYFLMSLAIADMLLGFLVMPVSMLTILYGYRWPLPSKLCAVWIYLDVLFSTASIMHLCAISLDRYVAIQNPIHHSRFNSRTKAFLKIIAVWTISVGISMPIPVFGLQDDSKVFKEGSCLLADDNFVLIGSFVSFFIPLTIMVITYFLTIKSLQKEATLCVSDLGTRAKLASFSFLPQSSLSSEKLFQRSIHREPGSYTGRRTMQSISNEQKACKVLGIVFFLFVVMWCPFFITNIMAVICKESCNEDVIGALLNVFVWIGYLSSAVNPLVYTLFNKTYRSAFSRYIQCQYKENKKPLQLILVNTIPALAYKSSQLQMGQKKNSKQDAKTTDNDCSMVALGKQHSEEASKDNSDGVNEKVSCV
Sequence of H1R (P35367 whole entry): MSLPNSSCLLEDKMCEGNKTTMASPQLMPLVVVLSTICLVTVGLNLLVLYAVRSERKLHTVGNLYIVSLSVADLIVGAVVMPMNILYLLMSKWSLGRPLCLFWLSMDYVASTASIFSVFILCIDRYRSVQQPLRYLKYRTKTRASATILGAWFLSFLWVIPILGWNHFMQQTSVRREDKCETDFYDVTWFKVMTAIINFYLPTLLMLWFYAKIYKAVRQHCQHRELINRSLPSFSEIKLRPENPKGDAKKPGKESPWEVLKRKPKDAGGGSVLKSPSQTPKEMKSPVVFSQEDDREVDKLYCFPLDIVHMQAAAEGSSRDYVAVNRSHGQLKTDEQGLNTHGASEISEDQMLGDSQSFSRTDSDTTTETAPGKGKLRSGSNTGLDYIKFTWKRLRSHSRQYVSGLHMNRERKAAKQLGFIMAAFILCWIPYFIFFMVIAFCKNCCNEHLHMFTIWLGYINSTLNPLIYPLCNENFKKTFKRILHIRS
Sequence of 5-HT7R (P34969 whole entry): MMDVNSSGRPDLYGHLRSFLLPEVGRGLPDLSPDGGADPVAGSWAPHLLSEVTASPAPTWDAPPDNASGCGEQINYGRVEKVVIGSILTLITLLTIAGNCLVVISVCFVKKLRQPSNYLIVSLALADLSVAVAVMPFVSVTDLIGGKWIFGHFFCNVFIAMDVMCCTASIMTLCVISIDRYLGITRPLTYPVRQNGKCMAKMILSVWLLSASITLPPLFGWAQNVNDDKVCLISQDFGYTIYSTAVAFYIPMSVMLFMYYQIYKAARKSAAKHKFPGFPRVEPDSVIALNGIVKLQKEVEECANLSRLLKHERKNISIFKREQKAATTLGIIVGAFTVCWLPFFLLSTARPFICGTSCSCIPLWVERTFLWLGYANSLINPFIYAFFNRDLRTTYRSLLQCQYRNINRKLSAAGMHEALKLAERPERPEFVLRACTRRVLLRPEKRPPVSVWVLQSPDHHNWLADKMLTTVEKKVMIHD

Compound | Ki SERT (SERT) | Ki 5HT2CR (5-HT2CR) | SERT binding affinity (in words) (SERT) | Ki 5-HT2A (5-HT2AR) | further results
O=C1NCN(c2ccccc2)C12CCN(CCCCc1nc3ccccc3s1)CC2 [Compound 7, 8-(4-(benzo[d]thiazol-2-yl)butyl)-1-phenyl-1,3,8-triazaspiro[4.5]decan-4-one] | MTA | MTA | – | – | –
O=C(CCCCN1CCC2(CC1)C(=O)NCN2c1ccccc1)c1nc2ccccc2s1 [Compound 9] | – | MTA | – | – | –
O=C1NCN(c2ccccc2)C12CCN(CCCCc1nc3ccccc3o1)CC2 [Compound 10, 8-(4-(benzo[d]oxazol-2-yl)butyl)-1-phenyl-1,3,8-triazaspiro[4.5]decan-4-one] | MTA | MTA | without significant affinity | MTA | –
O=C1NCN(c2ccccc2)C12CCN(CCCCc1c[nH]c3ccccc13)CC2 [Compound 11, 8-(4-(1H-indol-3-yl)butyl)-1-phenyl-1,3,8-triazaspiro[4.5]decan-4-one] | – | MTA | high affinity | – | H1R binding affinity (in words) (H1R): moderate binding; 5-HT2CR binding affinity (in words) (5-HT2CR): no significant affinity
O=C(CCCCN1CCN(C(c2ccc(F)cc2)c2ccc(F)cc2)CC1)c1nc2ccccc2s1 [Compound 17, 1-(benzo[d]thiazol-2-yl)-5-(4-(bis(4-fluorophenyl)methyl)piperazin-1-yl)pentan-1-one dihydrochloride] | – | – | – | – | pKi ± SE 5-HT7 (5-HT7R): 562.0/ 6.3±0.1
Cl.O=C(CCCCN1C2CCC1CC(O)(c1ccc(Cl)cc1)C2)c1nc2ccccc2s1 (stereo not drawn) [Compound 22, 1-(Benzo[d]thiazol-2-yl)-5-(3-(4-chlorophenyl)-3-hydroxy-8-azabicyclo[3.2.1]octan-8-yl)-pentan-1-one hydrochloride] | – | MTA | – | MTA | Ki 5-HT1A (5-HT1AR): MTA
